Reference: patent publication US9932637B2, “Genetic polymorphisms associated with cardiovascular disorders and drug response, methods of detection and uses thereof” (CELERA CORPORATION, priority 2003, dated 2018)
Where “and” joins values, the source holds several entries; their conditions need not be identical. Identical values can stand only once.

Tested on: patients with prior myocardial infarction (CARE study)
Assay: CARE aligned analysis (prospective and case/control design, white males): association of genotypes with pravastatin efficacy (Tables 13, 15)
Format: in vivo, human
Conditions: for Pravastatin vs placebo odds ratio, 0 rare alleles / Pravastatin vs placebo odds ratio, 1 rare allele / Pravastatin vs placebo odds ratio, 2 rare alleles / 2 rare alleles n/total (%), pravastatin patients: CARE, F MI/SD/NF MI; for Pravastatin Patients (%) / Pravastatin Patients n/total: WM
Protocol: The data presented in Table 8 based on an association of genotypes with pravastatin efficacy of the CARE samples were further analyzed and presented in Table 13. The further analysis was performed to align the data obtained from the analysis of the CARE samples, which was a prospective study, to the analysis of the WOSCOP samples, which was a case/control study. Table 13 also presents an analysis of the association of genotypes with pravastatin efficacy in the WOSCOPs samples. Relative to the analysis performed on the data presented in Table 8, there are two significant differences to determine if the SNP influenced pravastatin efficacy. Data obtained from the CARE samples were separated by study design into two groups, those in the prospective study design group and those in the case/control study design group. The original care study contained 16 protocol defined cardiovascular disease defined endpoints and 150 other phenotypes. […] The control groups used to compare the data were also divided into two groups, the “all possible” control group and the “cleaner” control group. […] Because the participants in the WOSCOPs trial were all white males, only data obtained from white males in the CARE study were analysed. Data from the “all possible” and “cleaner” controls were compared to data obtained from the cases in the prospective study design while only data from “cleaner” controls were compared to cases in the case/control study design. The data from the case/control cohorts were analysed using conditional logistic regression (as opposed to logistic regression used for the original anaylsis).
The anaylsis was refined as described for both Tables 13 and 14.

[1] = KLK14 hCV16044337, 0 Rare Alleles, CARE Case/Control, F&NF MI, All Possible controls
[2] = KLK14 hCV16044337, 0 Rare Alleles, CARE Case/Control, F&NF MI, Cleaner controls
[3] = KLK14 hCV16044337, 0 Rare Alleles, CARE Prospective, F&NF MI, All Possible controls
[4] = KLK14 hCV16044337, 0 Rare Alleles, CARE Prospective, F&NF MI, Cleaner controls
[5] = KLK14 hCV16044337, 1 Rare Allele, CARE Case/Control, F&NF MI, All Possible controls
[6] = KLK14 hCV16044337, 1 Rare Allele, CARE Case/Control, F&NF MI, Cleaner controls
[7] = KLK14 hCV16044337, 1 Rare Allele, CARE Prospective, F&NF MI, All Possible controls
[8] = KLK14 hCV16044337, 1 Rare Allele, CARE Prospective, F&NF MI, Cleaner controls
[9] = KLK14 hCV16044337, Case/Control
[10] = LPA hCV11225994, 0 Rare Alleles, CARE Case/Control, F&NF MI, Cleaner controls
[11] = LPA hCV11225994, 1 Rare Allele, CARE Case/Control, F&NF MI, Cleaner controls
[12] = MYH7 hCV25629396, 0 Rare Alleles, CARE Case/Control, F&NF MI, Cleaner controls
[13] = MYH7 hCV25629396, 0 Rare Alleles, CARE Prospective, F&NF MI, Cleaner controls
[14] = MYH7 hCV25629396, 1 Rare Allele, CARE Case/Control, F&NF MI, All Possible controls
[15] = MYH7 hCV25629396, 1 Rare Allele, CARE Case/Control, F&NF MI, Cleaner controls
[16] = MYH7 hCV25629396, 1 Rare Allele, CARE Prospective, F&NF MI, All Possible controls
[17] = MYH7 hCV25629396, 1 Rare Allele, CARE Prospective, F&NF MI, Cleaner controls
[18] = NOS3 hCV3219460, 0 Rare Alleles, CARE Case/Control, F&NF MI, All Possible controls
[19] = NOS3 hCV3219460, 0 Rare Alleles, CARE Case/Control, F&NF MI, Cleaner controls
[20] = NOS3 hCV3219460, 0 Rare Alleles, CARE Prospective, F&NF MI, All Possible controls
[21] = NOS3 hCV3219460, 0 Rare Alleles, CARE Prospective, F&NF MI, Cleaner controls
[22] = NOS3 hCV3219460, 1 Rare Allele, CARE Case/Control, F&NF MI, All Possible controls
[23] = NOS3 hCV3219460, 1 Rare Allele, CARE Case/Control, F&NF MI, Cleaner controls
[24] = NOS3 hCV3219460, 1 Rare Allele, CARE Prospective, F&NF MI, All Possible controls

## CC[C@H](C)C(=O)O[C@H]1C[C@H](O)C=C2C=C[C@H](C)[C@H](CC[C@@H](O)C[C@@H](O)CC(=O)O)[C@H]21 [pravastatin]
KDR hCV22271999, Case/Control
  Pravastatin vs placebo odds ratio, 0 rare alleles: 0.67 and 0.59
  Pravastatin vs placebo odds ratio, 1 rare allele: 1.69
  Pravastatin vs placebo odds ratio, 2 rare alleles: 0.38 and 0.31
KDR hCV22271999, Prospective
  2 rare alleles n/total (%), pravastatin patients: (9.1%)
  Pravastatin vs placebo odds ratio, 0 rare alleles: 0.61
  Pravastatin vs placebo odds ratio, 1 rare allele: 1.41
  Pravastatin vs placebo odds ratio, 2 rare alleles: 0.27
[1]
  Pravastatin Patients (%): (10.9%)
  Pravastatin Patients n/total: 60/548
[2]
  Pravastatin Patients (%): (16.4%)
  Pravastatin Patients n/total: 60/365
[3]
  Pravastatin Patients (%): (10.7%)
  Pravastatin Patients n/total: 60/560
[4]
  Pravastatin Patients (%): (16.0%)
  Pravastatin Patients n/total: 60/374
[5]
  Pravastatin Patients (%): (10.4%)
  Pravastatin Patients n/total: 57/547
[6]
  Pravastatin Patients (%): (14.3%)
  Pravastatin Patients n/total: 57/399
[7]
  Pravastatin Patients (%): (10.3%)
  Pravastatin Patients n/total: 57/556
[8]
  Pravastatin Patients (%): (14.1%)
  Pravastatin Patients n/total: 57/404
[9]
  Pravastatin vs placebo odds ratio, 0 rare alleles: 1.02 and 0.98
  Pravastatin vs placebo odds ratio, 1 rare allele: 0.85 and 0.74
  Pravastatin vs placebo odds ratio, 2 rare alleles: 0.23
KLK14 hCV16044337, Prospective
  Pravastatin vs placebo odds ratio, 0 rare alleles: 1.04 and 0.97
  Pravastatin vs placebo odds ratio, 1 rare allele: 0.86 and 0.73
  Pravastatin vs placebo odds ratio, 2 rare alleles: 0.22 and 0.23
[10]
  Pravastatin Patients (%): (14.0%)
  Pravastatin Patients n/total: 88/627
[11]
  Pravastatin Patients (%): (15.4%)
  Pravastatin Patients n/total: 29/188
LPA hCV11225994, CARE Case/Control, F&NF MI
  2 Rare Alleles (%), Pravastatin Patients: (41.2%)
MICA hCV25474101, Case/Control
  2 rare alleles n/total (%), pravastatin patients: (37.5%)
  Pravastatin vs placebo odds ratio, 0 rare alleles: 0.67
  Pravastatin vs placebo odds ratio, 1 rare allele: 0.72
  Pravastatin vs placebo odds ratio, 2 rare alleles: 6.64
MYH7 hCV25629396, 0 Rare Alleles, CARE Case/Control, F&NF MI, All Possible controls
  Pravastatin Patients (%): (10.0%)
[12]
  Pravastatin Patients (%): (14.5%)
  Pravastatin Patients n/total: 118/815
MYH7 hCV25629396, 0 Rare Alleles, CARE Prospective, F&NF MI, All Possible controls
  Pravastatin Patients (%): (9.8%)
[13]
  Pravastatin Patients (%): (14.2%)
  Pravastatin Patients n/total: 118/829
[14]
  Pravastatin Patients (%): (29.0%)
  Pravastatin Patients n/total: 9/31
[15]
  Pravastatin Patients (%): (40.9%)
  Pravastatin Patients n/total: 9/22
[16]
  Pravastatin Patients (%): (29.0%)
  Pravastatin Patients n/total: 9/31
[17]
  Pravastatin Patients (%): (40.9%)
  Pravastatin Patients n/total: 9/22
MYH7 hCV25629396, Case/Control
  Pravastatin vs placebo odds ratio, 0 rare alleles: 0.75 and 0.67
  Pravastatin vs placebo odds ratio, 1 rare allele: 12.05 and 11.70
MYH7 hCV25629396, Prospective
  Pravastatin vs placebo odds ratio, 0 rare alleles: 0.75 and 0.66
  Pravastatin vs placebo odds ratio, 1 rare allele: 13.41 and 14.00
[18]
  Pravastatin Patients (%): (10.0%)
  Pravastatin Patients n/total: 53/529
[19]
  Pravastatin Patients (%): (14.8%)
  Pravastatin Patients n/total: 53/359
[20]
  Pravastatin Patients (%): (9.8%)
  Pravastatin Patients n/total: 53/539
[21]
  Pravastatin Patients (%): (14.4%)
  Pravastatin Patients n/total: 53/368
[22]
  Pravastatin Patients (%): (12.3%)
  Pravastatin Patients n/total: 64/520
[23]
  Pravastatin Patients (%): (17.6%)
  Pravastatin Patients n/total: 64/363
[24]
  Pravastatin Patients (%): (12.1%)
  Pravastatin Patients n/total: 64/527
NOS3 hCV3219460, 1 Rare Allele, CARE Prospective, F&NF MI, Cleaner controls
  Pravastatin Patients (%): (17.5%)
